Source: the kinase profiling compilation of Christmann-Franck et al. (2016)

Legend:
Assay in all cases: radiometric filter-binding kinase assay
[1] = molecular target: MARK2 (human) (UniProt Q7KZI7)
[2] = molecular target: PIM1 (human) (UniProt P11309)
[3] = molecular target: EPHB3 (human) (UniProt P54753)
[4] = molecular target: MAP3K11 (human) (UniProt Q16584)
[5] = molecular target: MAP3K1 (human) (UniProt Q13233)
[6] = molecular target: PRKCZ (human) (UniProt Q05513)
[7] = molecular target: MARK1 (human) (UniProt Q9P0L2)
Sequence of MARK1 (human) (Q9P0L2 whole entry, looked up): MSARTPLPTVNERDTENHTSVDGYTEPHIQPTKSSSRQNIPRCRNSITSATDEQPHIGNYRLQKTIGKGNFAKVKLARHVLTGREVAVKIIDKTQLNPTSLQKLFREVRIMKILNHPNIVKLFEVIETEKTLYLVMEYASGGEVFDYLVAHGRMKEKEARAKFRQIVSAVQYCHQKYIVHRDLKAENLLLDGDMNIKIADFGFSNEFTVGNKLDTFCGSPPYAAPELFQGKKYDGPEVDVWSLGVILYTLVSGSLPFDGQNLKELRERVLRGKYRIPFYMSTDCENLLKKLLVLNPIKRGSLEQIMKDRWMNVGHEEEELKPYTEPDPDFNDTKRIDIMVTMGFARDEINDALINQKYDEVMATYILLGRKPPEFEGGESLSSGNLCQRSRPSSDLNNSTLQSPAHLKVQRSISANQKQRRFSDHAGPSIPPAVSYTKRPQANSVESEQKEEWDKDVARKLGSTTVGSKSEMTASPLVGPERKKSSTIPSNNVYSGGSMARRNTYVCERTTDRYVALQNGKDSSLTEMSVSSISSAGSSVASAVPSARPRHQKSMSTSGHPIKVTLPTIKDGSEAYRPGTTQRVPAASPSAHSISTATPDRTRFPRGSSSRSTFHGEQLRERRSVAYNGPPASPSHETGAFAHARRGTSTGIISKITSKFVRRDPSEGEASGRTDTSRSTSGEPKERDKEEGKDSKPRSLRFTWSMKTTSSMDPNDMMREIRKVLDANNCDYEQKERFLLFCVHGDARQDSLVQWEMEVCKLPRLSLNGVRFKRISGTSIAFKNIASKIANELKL

[8] = molecular target: MAPK9 (human) (UniProt P45984)
[9] = molecular target: GSK3B (human) (UniProt P49841)
Sequence of GSK3B (human) (P49841 whole entry, looked up): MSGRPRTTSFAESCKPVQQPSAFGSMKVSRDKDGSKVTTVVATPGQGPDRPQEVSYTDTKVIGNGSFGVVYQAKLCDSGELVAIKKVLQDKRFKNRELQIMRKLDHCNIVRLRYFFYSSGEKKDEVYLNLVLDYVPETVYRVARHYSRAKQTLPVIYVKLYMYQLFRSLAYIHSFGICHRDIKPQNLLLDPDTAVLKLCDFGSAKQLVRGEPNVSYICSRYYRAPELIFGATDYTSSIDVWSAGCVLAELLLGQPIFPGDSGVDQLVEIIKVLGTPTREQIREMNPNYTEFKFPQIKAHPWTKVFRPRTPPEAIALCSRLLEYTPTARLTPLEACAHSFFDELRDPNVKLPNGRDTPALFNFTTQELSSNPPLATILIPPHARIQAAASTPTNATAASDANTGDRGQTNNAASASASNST

[10] = molecular target: BRSK1 (human) (UniProt Q8TDC3)
[11] = molecular target: MARK4 (human) (UniProt Q96L34)
[12] = molecular target: PKN2 (human) (UniProt Q16513)
Sequence of PKN2 (human) (Q16513 whole entry, looked up): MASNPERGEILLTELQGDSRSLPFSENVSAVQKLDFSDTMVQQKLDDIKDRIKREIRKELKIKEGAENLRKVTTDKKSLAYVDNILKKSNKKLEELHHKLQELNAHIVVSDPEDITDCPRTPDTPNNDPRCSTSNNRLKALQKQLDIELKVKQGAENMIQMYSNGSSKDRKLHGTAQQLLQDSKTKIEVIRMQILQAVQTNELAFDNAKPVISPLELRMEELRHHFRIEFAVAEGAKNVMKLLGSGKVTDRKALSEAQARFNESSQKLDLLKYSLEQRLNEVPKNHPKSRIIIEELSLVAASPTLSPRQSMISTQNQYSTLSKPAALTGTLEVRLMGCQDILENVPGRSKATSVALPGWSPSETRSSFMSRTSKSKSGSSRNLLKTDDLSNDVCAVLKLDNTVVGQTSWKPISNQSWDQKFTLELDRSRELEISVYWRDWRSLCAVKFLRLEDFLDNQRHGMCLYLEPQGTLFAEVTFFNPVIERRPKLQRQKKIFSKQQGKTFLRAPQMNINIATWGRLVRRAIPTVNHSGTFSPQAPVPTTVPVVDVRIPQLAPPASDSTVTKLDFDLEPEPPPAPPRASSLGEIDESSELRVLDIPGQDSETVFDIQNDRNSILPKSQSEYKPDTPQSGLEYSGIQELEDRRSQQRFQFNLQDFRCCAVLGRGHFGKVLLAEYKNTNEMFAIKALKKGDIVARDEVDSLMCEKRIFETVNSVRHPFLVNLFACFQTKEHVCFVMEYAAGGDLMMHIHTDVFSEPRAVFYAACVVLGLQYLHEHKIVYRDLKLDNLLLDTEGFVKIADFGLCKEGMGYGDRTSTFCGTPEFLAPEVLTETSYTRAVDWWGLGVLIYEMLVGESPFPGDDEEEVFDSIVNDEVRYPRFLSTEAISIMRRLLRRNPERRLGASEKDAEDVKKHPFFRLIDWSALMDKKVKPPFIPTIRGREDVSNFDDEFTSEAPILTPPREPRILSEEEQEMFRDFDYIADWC

[13] = molecular target: HIPK3 (human) (UniProt Q9H422)
[14] = molecular target: PAK6 (human) (UniProt Q9NQU5)
[15] = molecular target: MAP2K6 (human) (UniProt P52564)
Sequence of MAP2K6 (human) (P52564 whole entry, looked up): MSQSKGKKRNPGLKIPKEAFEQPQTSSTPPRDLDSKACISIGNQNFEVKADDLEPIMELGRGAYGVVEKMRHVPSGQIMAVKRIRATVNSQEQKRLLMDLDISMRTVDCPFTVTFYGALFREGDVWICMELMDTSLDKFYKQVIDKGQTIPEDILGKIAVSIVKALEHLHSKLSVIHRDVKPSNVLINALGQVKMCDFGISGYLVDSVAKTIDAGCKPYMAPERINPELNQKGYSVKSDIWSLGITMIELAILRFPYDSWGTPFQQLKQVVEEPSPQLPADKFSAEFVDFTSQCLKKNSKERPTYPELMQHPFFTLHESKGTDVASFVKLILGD

[16] = molecular target: NUAK1 (human) (UniProt O60285)
[17] = molecular target: MAP2K2 (human) (UniProt P36507)
[18] = molecular target: MST4 (human) (UniProt Q9P289)
[19] = molecular target: DYRK2 (human) (UniProt Q92630)
[20] = molecular target: STK11 CAB39 STRADA (human) (UniProt Q9Y376+Q7RTN6+Q15831)
[21] = molecular target: INSR (human) (UniProt P06213)
[22] = molecular target: MAP3K7 TAB1 (human) (UniProt Q15750+O43318)
[23] = molecular target: EEF2K (human) (UniProt O00418)
[24] = molecular target: EPHA2 (human) (UniProt P29317)
[25] = molecular target: PRKCA (human) (UniProt P17252)
[26] = molecular target: AURKA (human) (UniProt O14965)
[27] = molecular target: MAP3K5 (human) (UniProt Q99683)
[28] = molecular target: IRAK4 (human) (UniProt Q9NWZ3)
[29] = tested on: AKT1 (human), P31749 [S473D]
[30] = molecular target: MAPKAPK2 (human) (UniProt P49137)
[31] = molecular target: MAPK12 (human) (UniProt P53778)
[32] = molecular target: MELK (human) (UniProt Q14680)
[33] = molecular target: MAP3K9 (human) (UniProt P80192)
[34] = molecular target: PAK4 (human) (UniProt O96013)
[35] = molecular target: ERBB4 (human) (UniProt Q15303)
[36] = molecular target: NTRK1 (human) (UniProt P04629)

Sequence of EPHB3 (human) (P54753 whole entry, looked up): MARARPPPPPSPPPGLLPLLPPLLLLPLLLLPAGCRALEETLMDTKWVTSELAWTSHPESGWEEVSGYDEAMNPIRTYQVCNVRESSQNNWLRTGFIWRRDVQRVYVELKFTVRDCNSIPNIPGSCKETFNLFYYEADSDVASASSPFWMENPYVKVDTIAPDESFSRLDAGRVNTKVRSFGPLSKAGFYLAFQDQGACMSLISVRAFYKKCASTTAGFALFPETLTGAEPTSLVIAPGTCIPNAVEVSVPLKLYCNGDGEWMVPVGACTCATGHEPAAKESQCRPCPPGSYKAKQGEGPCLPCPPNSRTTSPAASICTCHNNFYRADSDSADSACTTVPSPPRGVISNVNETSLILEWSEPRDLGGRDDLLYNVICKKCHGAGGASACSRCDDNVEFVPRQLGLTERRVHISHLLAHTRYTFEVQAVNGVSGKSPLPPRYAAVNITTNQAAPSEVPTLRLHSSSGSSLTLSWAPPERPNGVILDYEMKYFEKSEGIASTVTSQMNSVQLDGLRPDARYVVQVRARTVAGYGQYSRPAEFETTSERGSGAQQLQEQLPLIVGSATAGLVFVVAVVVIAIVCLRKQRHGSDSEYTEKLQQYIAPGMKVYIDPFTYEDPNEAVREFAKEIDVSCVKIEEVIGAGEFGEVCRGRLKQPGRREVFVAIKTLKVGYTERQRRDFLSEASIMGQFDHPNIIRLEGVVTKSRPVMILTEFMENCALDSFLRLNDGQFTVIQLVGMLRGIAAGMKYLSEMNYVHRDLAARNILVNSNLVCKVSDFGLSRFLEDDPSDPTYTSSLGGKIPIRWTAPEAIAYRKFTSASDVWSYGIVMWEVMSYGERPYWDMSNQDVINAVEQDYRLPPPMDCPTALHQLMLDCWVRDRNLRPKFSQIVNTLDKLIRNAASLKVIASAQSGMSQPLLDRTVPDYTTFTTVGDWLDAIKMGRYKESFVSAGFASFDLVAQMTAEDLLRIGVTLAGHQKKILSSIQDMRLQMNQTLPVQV
Sequence of PRKCZ (human) (Q05513 whole entry, looked up): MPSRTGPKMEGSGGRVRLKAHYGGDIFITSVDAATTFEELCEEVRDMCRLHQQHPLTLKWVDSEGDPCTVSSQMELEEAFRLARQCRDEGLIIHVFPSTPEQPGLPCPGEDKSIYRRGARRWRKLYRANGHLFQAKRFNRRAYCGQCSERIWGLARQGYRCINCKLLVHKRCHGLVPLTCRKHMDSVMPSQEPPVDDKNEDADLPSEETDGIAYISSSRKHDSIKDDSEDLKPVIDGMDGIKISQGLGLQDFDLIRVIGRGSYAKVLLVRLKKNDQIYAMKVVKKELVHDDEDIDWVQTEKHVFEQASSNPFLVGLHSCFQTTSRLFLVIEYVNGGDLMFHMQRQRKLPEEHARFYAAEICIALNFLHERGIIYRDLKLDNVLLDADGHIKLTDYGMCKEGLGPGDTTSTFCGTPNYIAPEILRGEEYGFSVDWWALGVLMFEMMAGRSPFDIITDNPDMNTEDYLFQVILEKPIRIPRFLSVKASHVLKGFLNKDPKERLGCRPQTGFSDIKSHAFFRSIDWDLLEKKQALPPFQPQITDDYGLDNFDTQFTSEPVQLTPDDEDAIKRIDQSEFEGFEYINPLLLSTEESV
Sequence of MARK2 (human) (Q7KZI7 whole entry, looked up): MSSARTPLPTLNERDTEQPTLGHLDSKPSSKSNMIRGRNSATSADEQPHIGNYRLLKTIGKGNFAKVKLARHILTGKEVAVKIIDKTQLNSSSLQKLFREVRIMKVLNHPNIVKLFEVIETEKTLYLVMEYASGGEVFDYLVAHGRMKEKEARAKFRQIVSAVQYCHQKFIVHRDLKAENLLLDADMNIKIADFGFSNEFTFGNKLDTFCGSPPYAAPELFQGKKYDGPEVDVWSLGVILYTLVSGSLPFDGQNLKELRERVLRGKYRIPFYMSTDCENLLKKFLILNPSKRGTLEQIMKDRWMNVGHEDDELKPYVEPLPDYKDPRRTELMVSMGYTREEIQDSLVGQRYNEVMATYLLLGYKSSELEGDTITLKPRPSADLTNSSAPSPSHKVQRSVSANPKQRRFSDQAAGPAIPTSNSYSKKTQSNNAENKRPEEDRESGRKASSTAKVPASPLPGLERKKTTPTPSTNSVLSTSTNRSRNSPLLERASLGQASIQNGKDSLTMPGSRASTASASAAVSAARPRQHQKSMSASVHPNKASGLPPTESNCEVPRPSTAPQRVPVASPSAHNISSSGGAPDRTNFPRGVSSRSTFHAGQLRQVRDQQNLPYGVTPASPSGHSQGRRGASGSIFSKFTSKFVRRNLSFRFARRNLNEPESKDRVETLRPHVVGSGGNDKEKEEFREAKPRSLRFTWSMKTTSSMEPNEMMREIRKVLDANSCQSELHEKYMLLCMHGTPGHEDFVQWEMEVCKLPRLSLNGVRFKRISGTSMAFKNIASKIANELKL

SMILES: NC(=O)c1ccc(-c2ccc(Oc3cncc4sc(-c5nn[nH]n5)cc34)cc2)cc1
- residual activity ([1]; compound 1.0 µM): 80%
- residual activity ([1]; compound 10.0 µM): 83%
- residual activity ([2]; compound 1.0 µM): 70%
- residual activity ([2]; compound 10.0 µM): 18%
- residual activity ([3]; compound 1.0 µM): 93%
- residual activity ([3]; compound 10.0 µM): 96%
- residual activity ([4]; compound 1.0 µM): 81%
- residual activity ([4]; compound 10.0 µM): 25%
- residual activity ([5]; compound 1.0 µM): 99%
- residual activity ([5]; compound 10.0 µM): 51%
- residual activity ([6]; compound 1.0 µM): 100%
- residual activity ([6]; compound 10.0 µM): 67%
- residual activity ([7]; compound 1.0 µM): 89%
- residual activity ([7]; compound 10.0 µM): 78%
- residual activity ([8]; compound 1.0 µM): 99%
- residual activity ([8]; compound 10.0 µM): 85%
- residual activity ([9]; compound 1.0 µM): 38%
- residual activity ([9]; compound 10.0 µM): 10%
- residual activity ([10]; compound 1.0 µM): 110%
- residual activity ([10]; compound 10.0 µM): 90%
- residual activity ([11]; compound 1.0 µM): 86%
- residual activity ([11]; compound 10.0 µM): 78%
- residual activity ([12]; compound 1.0 µM): 80%
- residual activity ([12]; compound 10.0 µM): 53%
- residual activity ([13]; compound 1.0 µM): 96%
- residual activity ([13]; compound 10.0 µM): 10%
- residual activity ([14]; compound 1.0 µM): 89%
- residual activity ([14]; compound 10.0 µM): 87%
- residual activity ([15]; compound 1.0 µM): 104%
- residual activity ([15]; compound 10.0 µM): 99%
- residual activity ([16]; compound 1.0 µM): 92%
- residual activity ([16]; compound 10.0 µM): 78%
- residual activity ([17]; compound 1.0 µM): 81%
- residual activity ([17]; compound 10.0 µM): 75%
- residual activity ([18]; compound 1.0 µM): 93%
- residual activity ([18]; compound 10.0 µM): 61%
- residual activity ([19]; compound 1.0 µM): 7%
- residual activity ([19]; compound 10.0 µM): 2%
- residual activity ([20]; compound 1.0 µM): 80%
- residual activity ([20]; compound 10.0 µM): 59%
- residual activity ([21]; compound 1.0 µM): 111%
- residual activity ([21]; compound 10.0 µM): 108%
- residual activity ([22]; compound 1.0 µM): 82%
- residual activity ([22]; compound 10.0 µM): 75%
- residual activity ([23]; compound 1.0 µM): 100%
- residual activity ([23]; compound 10.0 µM): 101%
- residual activity ([24]; compound 1.0 µM): 94%
- residual activity ([24]; compound 10.0 µM): 89%
- residual activity ([25]; compound 1.0 µM): 76%
- residual activity ([25]; compound 10.0 µM): 30%
- residual activity ([26]; compound 1.0 µM): 103%
- residual activity ([26]; compound 10.0 µM): 78%
- residual activity ([27]; compound 1.0 µM): 104%
- residual activity ([27]; compound 10.0 µM): 112%
- residual activity ([28]; compound 1.0 µM): 88%
- residual activity ([28]; compound 10.0 µM): 74%
- residual activity ([29]; compound 1.0 µM): 96%
- residual activity ([29]; compound 10.0 µM): 78%
- residual activity ([30]; compound 1.0 µM): 93%
- residual activity ([30]; compound 10.0 µM): 85%
- residual activity ([31]; compound 1.0 µM): 86%
- residual activity ([31]; compound 10.0 µM): 65%
- residual activity ([32]; compound 1.0 µM): 77%
- residual activity ([32]; compound 10.0 µM): 62%
- residual activity ([33]; compound 1.0 µM): 95%
- residual activity ([33]; compound 10.0 µM): 42%
- residual activity ([34]; compound 1.0 µM): 89%
- residual activity ([34]; compound 10.0 µM): 54%
- residual activity ([35]; compound 1.0 µM): 88%
- residual activity ([35]; compound 10.0 µM): 73%
- residual activity ([36]; compound 1.0 µM): 83%
- residual activity ([36]; compound 10.0 µM): 89%
